Data taken from patent US20150080466A1, “DIPHENYL UREA DERIVATIVES AS FORMYL PEPTIDE RECEPTOR MODULATORS” (Allergan, Inc., priority 2013, published 2015).

Target: T1, FPR2 (Homo sapiens, UniProt P25090)
T1 construct: expressed in transfected cells
T1 sequence (P25090 1-351): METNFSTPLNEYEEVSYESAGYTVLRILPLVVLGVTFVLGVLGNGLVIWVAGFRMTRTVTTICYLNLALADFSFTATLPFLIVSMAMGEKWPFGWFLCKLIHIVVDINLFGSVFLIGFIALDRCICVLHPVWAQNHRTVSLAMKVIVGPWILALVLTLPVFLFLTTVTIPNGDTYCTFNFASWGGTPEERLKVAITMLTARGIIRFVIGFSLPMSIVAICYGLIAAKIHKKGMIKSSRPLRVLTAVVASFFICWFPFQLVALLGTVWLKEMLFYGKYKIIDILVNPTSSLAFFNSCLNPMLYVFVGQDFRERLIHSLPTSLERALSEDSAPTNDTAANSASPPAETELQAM
Assay: Compound-induced calcium activity on FLIPR Tetra in CHO-Gα16 cells stably expressing FPRL1
Assay type: cell-based
Conditions: for FPR2 Ga16-CHO (Rel. eff.): relative efficacy; for EC50: tested at 0.61 to 10,000 nM, read-out: FPR2 Ga16-CHO EC50
Experimental: CHO-Gα16 cells stably expressing FPRL1 were cultured in (F12, 10% FBS, 1% PSA, 400 μg/ml geneticin and 50 μg/ml hygromycin) and HEK-Gqi5 cells stable expressing FPR1 were cultured in (DMEM high glucose, 10% FBS, 1% PSA, 400 μg/ml geneticin and 50 μg/ml hygromycin). In general, the day before the experiment, 18,000 cells/well were plated in a 384-well clear bottom poly-d-lysine coated plate. The following day the screening compound-induced calcium activity was assayed on the FLIPR^Tetra. The drug plates were prepared in 384-well microplates using the EP3 and the MultiPROBE robotic liquid handling systems. Compounds were tested at concentrations ranging from 0.61 to 10,000 nM. Results are expressed as EC50 (nM) and efficacy values.

| Structure (SMILES) | FPR2 Ga16-CHO (Rel. eff.) | EC50 |
| --- | --- | --- |
| O=C(O)CCc1ccccc1NC(=O)Nc1ccc(Br)cc1 [Compound 1, 3-(2-{[(4-Bromophenyl)carbamoyl]amino}phenyl)propanoic Acid] | (1.00) | 1.23 µM |
| COC(=O)CCCNC(=O)CCc1ccccc1NC(=O)Nc1ccc(Br)cc1 [Compound 2, Methyl 4-{[3-(2-{[(4-Bromophenyl)carbamoyl]amino}phenyl)propanoyl]amino}butanoate] | (0.96) | 0.922 µM |
| COC(=O)CCNC(=O)CCc1ccccc1NC(=O)Nc1ccc(Br)cc1 [Compound 3, Methyl3-{[3-(2-{[(4-bromophenyl)carbamoyl]amino}phenyl)propanoyl]amino}propanoate] | (1.00) | 0.311 µM |
| O=C(O)CCCNC(=O)CCc1ccccc1NC(=O)Nc1ccc(Br)cc1 [Compound 4, 4-{[3-(2-{[(4-Bromophenyl)carbamoyl]amino}phenyl)propanoyl]amino}butanoic Acid] | (0.99) | 2.04 µM |
| O=C(O)CCNC(=O)CCc1ccccc1NC(=O)Nc1ccc(Br)cc1 [Compound 5, 3-{[3-(2-{[(4-Bromophenyl)carbamoyl]amino}phenyl)propanoyl]amino}propanoic acid] | (1.00) | 0.637 µM |
| COC(=O)CNC(=O)CCc1ccccc1NC(=O)Nc1ccc(Br)cc1 [Compound 6, Methyl {[3-(2-{[(4-bromophenyl)carbamoyl]amino}phenyl)propanoyl]amino}acetate] | (0.80) | 0.18 µM |
| O=C(O)CNC(=O)CCc1ccccc1NC(=O)Nc1ccc(Br)cc1 [Compound 7, {[3-(2-{[(4-Bromophenyl)carbamoyl]amino}phenyl)propanoyl]amino}acetic acid] | (0.76) | 0.41 µM |
